These results are taken from patent US20240327380A1, “BTK INHIBITORS” (BIOGEN MA INC., priority 2020, published 2024).

The target in this assay is T1, active BTK enzyme (Upstate 14-552) (Homo sapiens, UniProt Q06187).
T1 construct: purchased Upstate 14-552
In words: In Vitro BTK Kinase Assay: Btk-PolyGAT-LS Assay. In kind it is biochemical. Particulars: ATP 10 μM, polyGAT 100 nM, BTK 0.25 nM, 30 minutes, TRF readout. The method, then: In Vitro BTK Kinase Assay: Btk-PolyGAT-LS Assay The purpose of the BTK in vitro assay is to determine compound potency against BTK through the measurement of IC50. Compound inhibition is measured after monitoring the amount of phosphorylation of a fluorescein-labeled polyGAT peptide (Invitrogen PV3611) in the presence of active BTK enzyme (Upstate 14-552), ATP, and inhibitor. The BTK kinase reaction was done in a black 96 well plate (costar 3694). For a typical assay, a 24 μL aliquot of a ATP/peptide master mix (final concentration; ATP 10 μM, polyGAT 100 nM) in kinase buffer (10 mM Tris-HCl pH 7.5, 10 mM MgCl2, 200 μM […], 5 mM DTT, 0.01% Triton X-100, and 0.2 mg/ml casein) is added to each well. Next, […] of a 4-fold, 40× compound titration in 100% DMSO solvent is added, followed by adding 15 μL of BTK enzyme mix in 1× kinase buffer (with a final concentration of 0.25 nM). The assay is incubated for 30 minutes before being stopped with 28 μL of a 50 mM EDTA solution. Aliquots (5 μL) of the kinase reaction are transferred to a low volume white 384 well plate (Coming 3674), and 5 μL of a 2× detection buffer (Invitrogen PV3574, with 4 nM Tb-PY20 antibody, Invitrogen PV3552) is added. The plate is covered and incubated for 45 minutes at room temperature. Time resolved fluorescence (TRF) on Molecular Devices M5 (332 nm excitation; 488 nm emission; 518 nm fluorescein emission) is measured. IC50 values are calculated using a four parameter fit with 100% enzyme activity determined from the DMSO control and 0% activity from the EDTA control.

T1 sequence (Q06187 whole entry): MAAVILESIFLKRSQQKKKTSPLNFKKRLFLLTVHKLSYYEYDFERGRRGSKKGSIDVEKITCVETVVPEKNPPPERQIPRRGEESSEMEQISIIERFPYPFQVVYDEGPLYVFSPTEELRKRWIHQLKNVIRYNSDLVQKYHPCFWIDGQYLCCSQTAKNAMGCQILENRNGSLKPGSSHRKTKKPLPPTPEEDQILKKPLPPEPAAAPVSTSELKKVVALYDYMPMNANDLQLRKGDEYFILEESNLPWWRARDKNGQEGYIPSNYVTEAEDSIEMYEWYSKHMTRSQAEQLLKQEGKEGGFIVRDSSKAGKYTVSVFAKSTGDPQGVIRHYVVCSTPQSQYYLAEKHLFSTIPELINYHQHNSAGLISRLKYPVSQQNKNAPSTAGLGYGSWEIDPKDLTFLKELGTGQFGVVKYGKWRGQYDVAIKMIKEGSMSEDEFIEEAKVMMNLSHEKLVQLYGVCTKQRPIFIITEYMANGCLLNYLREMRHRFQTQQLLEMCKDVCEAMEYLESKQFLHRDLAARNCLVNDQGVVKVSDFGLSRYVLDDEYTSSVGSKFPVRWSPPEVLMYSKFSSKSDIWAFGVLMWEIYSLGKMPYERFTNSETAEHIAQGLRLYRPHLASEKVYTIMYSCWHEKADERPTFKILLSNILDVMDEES

As for `C=CC(=O)N(C)[C@@H]1CCCN(c2cncc(C#N)c2-c2ccc(CNC(=O)c3cn(C(C)(C)C)nn3)c(C)c2)C1` [Example 48, (R)-1-(tert-butyl)-N-(4-(3-cyano-5-(3-(N-methylacrylamido)piperidin-1-yl)pyridin-4-yl)-2-methylbenzyl)-1H-1,2,3-triazole-4-carboxamide], the IC50 was at most 1 nM. Under `CN(C)C/C=C/C(=O)N1CCN(c2cnccc2-c2ccc(CNC(=O)c3noc(C(C)(C)C)n3)c(C(F)F)c2)CC1` [Example 87, (E)-5-(tert-butyl)-N-(2-(difluoromethyl)-4-(3-(4-(4-(dimethylamino)but-2-enoyl)piperazin-1-yl)pyridin-4-yl)benzyl)-1,2,4-oxadiazole-3-carboxamide] stands at most 1 nM; under `Cc1cc(-c2ccncc2N2CCN(C(=O)/C=C/C(F)(F)F)CC2)ccc1CNC(=O)c1noc(C(C)(C)C)n1` [Example 58, (E)-5-(tert-butyl)-N-(2-methyl-4-(3-(4-(4,4,4-trifluorobut-2-enoyl)piperazin-1-yl)pyridin-4-yl)benzyl)-1,2,4-oxadiazole-3-carboxamide], at most 1 nM; under `Cc1cc(-c2ccncc2N2CCN(C(=O)/C=C/CN3CC(F)C3)CC2)ccc1CNC(=O)c1noc(C(C)(C)C)n1` [Example 64, (E)-5-(tert-butyl)-N-(4-(3-(4-(4-(3-fluoroazetidin-1-yl)but-2-enoyl)piperazin-1-yl)pyridin-4-yl)-2-methylbenzyl)-1,2,4-oxadiazole-3-carboxamide], 1 to 10 nM. With `C=CC(=O)N1CC2(C1)CN(c1cnccc1-c1ccc(CNC(=O)c3noc(C(C)(C)C)n3)c(C)c1)C2` [Example 6, N-(4-(3-(6-acryloyl-2,6-diazaspiro[3.3]heptan-2-yl)pyridin-4-yl)-2-methylbenzyl)-5-(tert-butyl)-1,2,4-oxadiazole-3-carboxamide], the IC50 was above 10 nM. Under `Cc1cc(-c2ccncc2N2CCN(C(=O)/C=C/CN(C)C)CC2)ccc1CN1CCc2c(cnn2C(C)(C)C)C1=O` [Example 72, (E)-1-(tert-butyl)-5-(4-(3-(4-(4-(dimethylamino)but-2-enoyl)piperazin-1-yl)pyridin-4-yl)-2-methylbenzyl)-1,5,6,7-tetrahydro-4H-pyrazolo[4,3-c]pyridin-4-one] stands at most 1 nM; under `C=C(F)C(=O)N1CCN(c2cncnc2-c2ccc(CNC(=O)c3noc(C(C)(C)C)n3)c(C)c2)CC1` [Example 81, 5-(tert-butyl)-N-(4-(5-(4-(2-fluoroacryloyl)piperazin-1-yl)pyrimidin-4-yl)-2-methylbenzyl)-1,2,4-oxadiazole-3-carboxamide], 1 to 10 nM; under `C=CC(=O)N1CCC[C@H](c2cnccc2-c2ccc(CNC(=O)c3noc(C4(C)CC4)n3)c(C)c2)C1` (single isomer, unassigned) [Example 27], above 10 nM. For `C=CC(=O)N1CCN(c2cncnc2-c2ccc(CNC(=O)c3nc(C4(C)CC4)no3)c(C)c2)CC1` [Example 84, N-(4-(5-(4-acryloylpiperazin-1-yl)pyrimidin-4-yl)-2-methylbenzyl)-3-(1-methylcyclopropyl)-1,2,4-oxadiazole-5-carboxamide], the IC50 is at most 1 nM. In the case of `Cc1cc(-c2ccncc2N2CCN(C(=O)C3CO3)CC2)ccc1CNC(=O)c1noc(C(C)(C)C)n1` (stereo not shown) [Example 59, 5-(tert-butyl)-N-(2-methyl-4-(3-(4-(oxirane-2-carbonyl)piperazin-1-yl)pyridin-4-yl)benzyl)-1,2,4-oxadiazole-3-carboxamide], the IC50 lay within 1 to 10 nM. Turning to `CN(C)C/C=C/C(=O)N1CCN(c2cnccc2-c2ccc(CNC(=O)c3nc(C(C)(C)C)no3)c(C(F)(F)F)c2)CC1` [Example 92, (E)-3-(tert-butyl)-N-(4-(3-(4-(4-(dimethylamino)but-2-enoyl)piperazin-1-yl)pyridin-4-yl)-2-(trifluoromethyl)benzyl)-1,2,4-oxadiazole-5-carboxamide], the IC50 was at most 1 nM. Take `C=CC(=O)N(C)CC1CCCN(c2cnccc2-c2ccc(CNC(=O)c3noc(C(C)(C)C)n3)c(C)c2)C1` (stereo not shown) [Example 21, 5-(tert-butyl)-N-(2-methyl-4-(3-(3-((N-methylacrylamido)methyl)piperidin-1-yl)pyridin-4-yl)benzyl)-1,2,4-oxadiazole-3-carboxamide]: the IC50 fell in the range of 1 to 10 nM. Under `C=CC(=O)N1CCN(c2cncnc2-c2ccc(CNC(=O)c3noc(C(C)(C)C)n3)c(C)c2)CC1` [Example 80, N-(4-(5-(4-acryloylpiperazin-1-yl)pyrimidin-4-yl)-2-methylbenzyl)-5-(tert-butyl)-1,2,4-oxadiazole-3-carboxamide] stands at most 1 nM; under `CN(C)C/C=C/C(=O)N1CCN(c2cnccc2-c2ccc(CNC(=O)c3noc(C4(C)CC4)n3)c(C(F)F)c2)CC1` [Example 88, (E)-N-(2-(difluoromethyl)-4-(3-(4-(4-(dimethylamino)but-2-enoyl)piperazin-1-yl)pyridin-4-yl)benzyl)-5-(1-methylcyclopropyl)-1,2,4-oxadiazole-3-carboxamide], 1 to 10 nM; under `C=CC(=O)N1CCN(c2cncnc2-c2ccc(CNC(=O)c3nnn(C(C)(C)C)n3)c(C)c2)CC1` [Example 79, N-(4-(5-(4-acryloylpiperazin-1-yl)pyrimidin-4-yl)-2-methylbenzyl)-2-(tert-butyl)-2H-tetrazole-5-carboxamide], at most 1 nM. The compound `C=CC(=O)N1CC2CC1CN(c1cnccc1-c1ccc(CNC(=O)c3cn(C(C)(C)C)nn3)c(C)c1)C2` (stereo not shown) [Example 54, 1-tert-butyl-N-[[2-methyl-4-[3-(6-prop-2-enoyl-3,6-diazabicyclo[3.2.1]octan-3-yl)-4-pyridyl]phenyl]methyl]triazole-4-carboxamide] displayed an IC50 above 10 nM.

Turning to `Cc1cc(-c2ccncc2N2CCN(C(=O)/C=C/CN(C)C)CC2)ccc1CNC(=O)c1noc(C2(CF)CC2)n1` [Example 93, (E)-N-(4-(3-(4-(4-(dimethylamino)but-2-enoyl)piperazin-1-yl)pyridin-4-yl)-2-methylbenzyl)-5-(1-(fluoromethyl)cyclopropyl)-1,2,4-oxadiazole-3-carboxamide], the IC50 is at most 1 nM. Under `CN(C)C/C=C/C(=O)N1CCN(c2cnccc2-c2ccc(CNC(=O)c3nc(C(C)(C)C)no3)c(C(F)F)c2)CC1` [Example 89, (E)-3-(tert-butyl)-N-(2-(difluoromethyl)-4-(3-(4-(4-(dimethylamino)but-2-enoyl)piperazin-1-yl)pyridin-4-yl)benzyl)-1,2,4-oxadiazole-5-carboxamide] stands at most 1 nM; under `CC#CC(=O)N1CCN(c2cnccc2-c2ccc(CNC(=O)c3noc(C(C)(C)C)n3)c(C)c2)CC1` [Example 62, N-(4-(3-(4-(but-2-ynoyl)piperazin-1-yl)pyridin-4-yl)-2-methylbenzyl)-5-(tert-butyl)-1,2,4-oxadiazole-3-carboxamide], at most 1 nM. `C=CC(=O)N1CCN(c2cnccc2-c2ccc(CNC(=O)c3noc(C(C)(C)C)c3F)c(C)c2)CC1` [Example 96, N-(4-(3-(4-acryloylpiperazin-1-yl)pyridin-4-yl)-2-methylbenzyl)-5-(tert-butyl)-4-fluoroisoxazole-3-carboxamide] gave an IC50 of at most 1 nM. Under `Cc1cc(-c2ccncc2N2CCN(C(=O)/C=C/CN3CCOCC3)CC2)ccc1CNC(=O)c1noc(C(C)(C)C)n1` [Example 67, (E)-5-(tert-butyl)-N-(2-methyl-4-(3-(4-(4-morpholinobut-2-enoyl)piperazin-1-yl)pyridin-4-yl)benzyl)-1,2,4-oxadiazole-3-carboxamide] stands 1 to 10 nM; under `C=CC(=O)N1CCN(c2cnccc2-c2ccc(CNC(=O)c3ccc(C(F)F)nc3)c(C)c2)CC1` [Example 97, N-(4-(3-(4-acryloylpiperazin-1-yl)pyridin-4-yl)-2-methylbenzyl)-6-(difluoromethyl)nicotinamide], 1 to 10 nM. Take `C=CC(=O)N1CCN(c2cnccc2-c2ccc(CNC(=O)c3noc(C4(C(F)F)CC4)n3)c(C)c2)CC1` [Example 99, N-(4-(3-(4-acryloylpiperazin-1-yl)pyridin-4-yl)-2-methylbenzyl)-5-(1-(difluoromethyl)cyclopropyl)-1,2,4-oxadiazole-3-carboxamide]: the half-maximal inhibitory concentration (IC50) is at most 1 nM. As to `C=CC(=O)N(C)C1CCCN(c2cnccc2-c2ccc(CNC(=O)c3ncc(C(C)(C)C)o3)c(C)c2)C1` (stereo not shown) [Example 45, 5-(tert-butyl)-N-(2-methyl-4-(3-(3-(N-methylacrylamido)piperidin-1-yl)pyridin-4-yl)benzyl)oxazole-2-carboxamide], the IC50 is at most 1 nM. For `C=CC(=O)N(C)[C@@H]1CCC(=O)N(c2cnccc2-c2ccc(CNC(=O)c3nnn(C(C)(C)C)n3)c(C)c2)C1` (single isomer, unassigned) [Example 53 Peak 2], the IC50 was above 10 nM.

What is called IC50 is the midpoint of a concentration-inhibition curve. A lower IC50 goes with higher potency.
